The values below come from patent publication US20070292901A1, “Methods and kits for evaluating and measuring the oncological status of tissue samples in three-dimensional physiological matrices” (priority 2006, published 2007).

In this assay the test system is Patient Sample GS-640, kidney tissue, renal cell carcinoma. As to the kind of experiment: Three-dimensional gel matrix screening of chemotherapeutics on patient tumor tissue fragments (cell migration/invasion into the gel). The assay is classed as cell-based, human. As to conditions: renal cell carcinoma patient sample GS-640 in gel matrix; for number of cells that have grown and invaded away from the solid tumor fragment / distance of cell migration away from the solid tumor fragment: 5 days after treatment, photomicrograph; for number of cells that have grown and invaded away from the solid tumor fragment: versus control; for response of tumor sample to the drug: treated for 5 days, 37 degree Celsius, 5% CO2, compared with untreated control (FIG. 5). An excerpt:
FIGS. 1-8 are photographic and photomicrographic images which show, by way of example, use of the means and methods of the present invention with respect to a tissue sample removed from a patient. With respect to FIGS. 1-8, Patient Sample GS-640, comprising kidney tissue, was removed from the patient by a surgeon during surgery.
Tissue analysis and screening in accordance with the invention were requested by the surgeon, and proper consent was obtained from the patient prior to surgical removal of a sample quantity of tissue from the RHS Kidney. The patient was diagnosed with renal cell carcinoma. A tissue sample of approximately 1 gram in quantity was removed from the patient during surgery, and was placed into a 25 ml sample jar, and immersed in sterile saline. The tumor tissue was kept at 4 degrees centigrade until processed for the screening of therapeutic compounds in accordance with the means and methods of the invention. All procedures were performed under sterile conditions in a bio-safety laminar flow hood.
FIG. 1: FIG. 1 is a photographic image showing the mechanical division of the sample into portions to be tested. The sample has been prepared by dissecting away any non viable tissue and blood prior to mincing into 1-2 mm pieces using sterile disposable scalpels.
FIG. 2: FIG. 2 is a photographic image showing tumor sample portions which have been placed into each well of a 48 well plate, and been submersed in a gel matrix mixture according to the invention. After insertion of the portions, the mixture was allowed to form into a gel at room temperature for approximately 30 minutes. Once the gel formed around the fully immersed tumor fragments, nutrient rich media was added as a liquid overlay that permeated the entire gel and tumor fragment.
Each different chemotherapy and or dose of chemotherapy was added to a set of 6 wells out of the 48-well plate. A total of 7 different chemotherapies were assessed in this plate. One set of six wells were not treated with drug and thus acted as ‘control conditions’ for tumor fragment growth and invasion. Each of the eight vertical lanes containing six separate wells was marked with a symbol for each chemotherapy/dose used and noted correspondingly on data collection sheets. […] The plates were then placed in a conventional 37 degree Celsius incubator at 5% CO2.
This image is thus representative of all wells at Day 0 with or without chemotherapeutics. Images were made with a 400× magnification phase contrast micrograph using ZEISS camera specs.
Noteworthy is the halo of cells and increased cell density as compared with the results shown at Day 3 of the test. The lines on the images have been drawn to show the distance measurements within which approximately 95% of the migrating cells have migrated away from the margins of the tissue sample.

On to `N.N.[Cl][Pt][Cl]` [Cisplatin], for which the “number of cells that have grown and invaded away from the solid tumor fragment” value (“number” for short) is “identical in appearance and cell numbers to the control sample”; the “response of tumor sample to the drug” value was “failed chemotherapy”.

For `CC(=O)O[C@@]12CO[C@@H]1C[C@H](O)[C@@]1(C)C(=O)[C@H](O)C3=C(C)[C@@H](OC(=O)[C@H](O)[C@@H](NC(=O)OC(C)(C)C)c4ccccc4)C[C@@](O)([C@@H](OC(=O)c4ccccc4)[C@H]21)C3(C)C` [Docetaxol, Docetaxel], the “distance of cell migration away from the solid tumor fragment” value is reported as “longer migratory distance than treatment with Taxol”; the “number” value was “fewer number of invading cells than the control”; the “response of tumor sample to the drug” value is “moderate response”.

For `CC(=O)O[C@H]1C(=O)[C@@]2(C)[C@H]([C@H](OC(=O)c3ccccc3)[C@]3(O)C[C@H](OC(=O)[C@H](O)[C@@H](NC(=O)c4ccccc4)c4ccccc4)C(C)=C1C3(C)C)[C@]1(OC(C)=O)CO[C@@H]1C[C@@H]2O` [Taxol, Paclitaxel], the “distance of cell migration away from the solid tumor fragment” value is on record as “drop”; the “number” value was “drop”.
